Results published in BindingDB's records for doi:10.1021/jm300752n (Emory University, 2012).

test: Inhibition of P300 CH1 domain-mediated HIF1 transcriptional activity in human LN229-V6R cells assessed as reduction in luciferase activity incubated for 1 hr under normoxia followed by 24 hrs under hypoxia by reporter gene assay

| IC50 [µM] | Compound |
| --- | --- |
| 5 | CC(C)CN(Cc1ccc2c(c1)C=CC(C)(C)O2)S(=O)(=O)c1nccs1 |
| 5 | CC(C)CN(Cc1ccc2c(c1)C=CC(C)(C)O2)S(=O)(=O)c1nccn1C |
| 5 | COc1cc(CN(C(C)C)S(=O)(=O)c2ccccn2)cc2c1OC(C)(C)C=C2 |
| 5 | CC(C)CN(Cc1ccc2c(c1)C=CC(C)(C)O2)S(=O)(=O)c1ccccn1 |
